{
  "source": "paper PMC12410356",
  "about": "(International Journal for Parasitology: Drugs and Drug …, 2025)",
  "key": {"[1]": {"tested_on": "E. multilocularis metacestode vesicles", "test": "Phosphoglucose isomerase (PGI) release assay (damage-marker release) on metacestode vesicles", "type": "cell-based, Echinococcus multilocularis", "settings": "10 μM; for PGI d5 (relative PGI release): 5 days; for PGI d12 (relative PGI release): 12 days"}, "[2]": {"tested_on": "E. multilocularis metacestode vesicles", "test": "Metacestode vesicle viability assay (ATP, CellTiter-Glo)", "type": "cell-based, Echinococcus multilocularis", "settings": "10 μM, 12 days", "procedure": "Viability was assessed after 12 days using the same metacestode vesicles as for the PGI release assay. Triton X-100 was added to each well to a final concentration of 0.1 %. Subsequently the metacestode vesicles were broken mechanically and 50 μL of the supernatant was mixed with 50 μL of CellTiter-Glo® buffer (Promega, Dübendorf, Switzerland). Measurements were performed on a HIDEX Sense microplate reader."}, "[3]": {"settings": "overview screen, singlets, relative to 0.1 % Triton X-100, DMSO subtracted"}, "[4]": {"settings": "overview screen, singlets, relative to DMSO control"}, "[5]": {"settings": "confirmation screen, triplicates, mean"}},
  "note": "“And” between values parts separate entries of the source, which are not always exact repeats. Equal values may be shown once.",
  "data": [
    {"smiles": "COc1cc(Cc2cc(N)nc(N)n2)cc(OC)c1OC", "note": "[MMV1579846]", "values": [
      {"measurement": "PGI d5 (relative PGI release)", "setting": "[1]; [3]", "value": 1.265, "unit": "%"},
      {"measurement": "PGI d12 (relative PGI release)", "setting": "[1]; [3]", "value": 19.1796, "unit": "%"},
      {"measurement": "Viability d12 (relative viability)", "setting": "[2]; [4]", "value": 26.7191, "unit": "%"}
    ]},
    {"smiles": "CC1(C)Cc2c(C#N)c(SCCc3ccccc3)nc(N3CCOCC3)c2CO1", "note": "[MMV1549626]", "values": [
      {"measurement": "PGI d5 (relative PGI release)", "setting": "[1]; [3]", "value": -2.265, "unit": "%"},
      {"measurement": "PGI d12 (relative PGI release)", "setting": "[1]; [3]", "value": -14.2052, "unit": "%"},
      {"measurement": "Viability d12 (relative viability)", "setting": "[2]; [4]", "value": 93.3497, "unit": "%"}
    ]},
    {"smiles": "C=CCc1cc(Cc2cnc(N)nc2N)cc(OC)c1O", "note": "[MMV1580849]", "values": [
      {"measurement": "PGI d5 (relative PGI release)", "setting": "[1]; [3]", "value": "24.5% and 24.5063%"},
      {"measurement": "PGI d12 (relative PGI release)", "setting": "[1]; [3]", "value": -6.332, "unit": "%"},
      {"measurement": "Viability d12 (relative viability)", "setting": "[2]; [4]", "value": 47.2094, "unit": "%"}
    ]},
    {"smiles": "C=C(C)n1c(=O)n(Cc2ccccc2C)c2ccccc21", "note": "[MMV1579354]", "values": [
      {"measurement": "PGI d5 (relative PGI release)", "setting": "[1]; [5]", "value": -0.0635, "unit": "%"},
      {"measurement": "PGI d12 (relative PGI release)", "setting": "[1]; [5]", "value": 0.33, "unit": "%"},
      {"measurement": "PGI d5 (relative PGI release)", "setting": "[1]; [3]", "value": 29.5855, "unit": "%"},
      {"measurement": "PGI d12 (relative PGI release)", "setting": "[1]; [3]", "value": 93.1874, "unit": "%"},
      {"measurement": "Viability d12 (relative viability)", "setting": "[2]; [5]", "value": 130.19, "unit": "%"},
      {"measurement": "Viability d12 (relative viability)", "setting": "[2]; [4]", "value": 10.0196, "unit": "%"}
    ]},
    {"smiles": "FC(F)(F)Oc1ccc(Nc2ccc3cccc(Cl)c3n2)cc1", "note": "[MMV1581032]", "values": [
      {"measurement": "PGI d5 (relative PGI release)", "setting": "[1]; [3]", "value": -0.01272, "unit": "%"},
      {"measurement": "PGI d12 (relative PGI release)", "setting": "[1]; [3]", "value": 18.8065, "unit": "%"},
      {"measurement": "Viability d12 (relative viability)", "setting": "[2]; [4]", "value": 85.6723, "unit": "%"}
    ]},
    {"smiles": "NNC(=O)c1ccncc1", "note": "[MMV002169]", "values": [
      {"measurement": "PGI d5 (relative PGI release)", "setting": "[1]; [3]", "value": 1.814, "unit": "%"},
      {"measurement": "PGI d12 (relative PGI release)", "setting": "[1]; [3]", "value": -1, "unit": "%"},
      {"measurement": "Viability d12 (relative viability)", "setting": "[2]; [4]", "value": 113.159, "unit": "%"}
    ]},
    {"smiles": "CC[N+]1(C/C2=C/CCCCCC2)CCC(NC(=O)C2c3cc(Cl)ccc3Oc3ccc(Cl)cc32)CC1.[I-]", "note": "(stereo not drawn) [MMV1580489]", "values": [
      {"measurement": "PGI d5 (relative PGI release)", "setting": "[1]; [3]", "value": 1.482, "unit": "%"},
      {"measurement": "PGI d12 (relative PGI release)", "setting": "[1]; [3]", "value": -2.113, "unit": "%"},
      {"measurement": "Viability d12 (relative viability)", "setting": "[2]; [4]", "value": 73.6372, "unit": "%"}
    ]},
    {"smiles": "CC(=N)N1CC[C@H](SC2=C(C(=O)O)N3C(=O)[C@@H]([C@@H](C)O)[C@H]3C2)C1", "note": "[MMV1582382]", "values": [
      {"measurement": "PGI d5 (relative PGI release)", "setting": "[1]; [3]", "value": -2.073, "unit": "%"},
      {"measurement": "PGI d12 (relative PGI release)", "setting": "[1]; [3]", "value": -11.6677, "unit": "%"},
      {"measurement": "Viability d12 (relative viability)", "setting": "[2]; [4]", "value": 19.8723, "unit": "%"}
    ]},
    {"smiles": "Fc1ccc2c(/C=C/c3nnn[nH]3)c[nH]c2c1", "note": "[MMV1578563]", "values": [
      {"measurement": "PGI d5 (relative PGI release)", "setting": "[1]; [3]", "value": -0.5513, "unit": "%"},
      {"measurement": "PGI d12 (relative PGI release)", "setting": "[1]; [3]", "value": -11.8723, "unit": "%"},
      {"measurement": "Viability d12 (relative viability)", "setting": "[2]; [4]", "value": 20.2898, "unit": "%"}
    ]},
    {"smiles": "O=S(=O)(Nc1ccc(O)cc1)c1cccc2cccnc12", "note": "[MMV251679]", "values": [
      {"measurement": "PGI d5 (relative PGI release)", "setting": "[1]; [3]", "value": 0.1251, "unit": "%"},
      {"measurement": "PGI d12 (relative PGI release)", "setting": "[1]; [3]", "value": -17.8593, "unit": "%"},
      {"measurement": "Viability d12 (relative viability)", "setting": "[2]; [4]", "value": 83.9227, "unit": "%"}
    ]},
    {"smiles": "CNc1nc(=O)[nH]cc1F", "note": "[MMV1782388]", "values": [
      {"measurement": "PGI d5 (relative PGI release)", "setting": "[1]; [3]", "value": -3.006, "unit": "%"},
      {"measurement": "PGI d12 (relative PGI release)", "setting": "[1]; [3]", "value": -25.8676, "unit": "%"},
      {"measurement": "Viability d12 (relative viability)", "setting": "[2]; [4]", "value": 224.858, "unit": "%"}
    ]},
    {"smiles": "OCCC#Cc1nc(-c2ccc(F)cc2)c(-c2ccncc2)n1CCCc1ccccc1", "note": "[MMV1580797]", "values": [
      {"measurement": "PGI d5 (relative PGI release)", "setting": "[1]; [3]", "value": 0.809, "unit": "%"},
      {"measurement": "PGI d12 (relative PGI release)", "setting": "[1]; [3]", "value": -17.1938, "unit": "%"},
      {"measurement": "Viability d12 (relative viability)", "setting": "[2]; [4]", "value": 270.956, "unit": "%"}
    ]},
    {"smiles": "O=c1ccc2ncc(=O)n3c2n1CC3CN1CCC(NCc2cc3c(cn2)OCCC3)CC1", "note": "(stereo not drawn) [MMV1578568]", "values": [
      {"measurement": "PGI d5 (relative PGI release)", "setting": "[1]; [3]", "value": -2.295, "unit": "%"},
      {"measurement": "PGI d12 (relative PGI release)", "setting": "[1]; [3]", "value": -8.489, "unit": "%"},
      {"measurement": "Viability d12 (relative viability)", "setting": "[2]; [4]", "value": 53.1876, "unit": "%"}
    ]},
    {"smiles": "Nc1ccc2oc(=O)ccc2c1I", "note": "[MMV1581378]", "values": [
      {"measurement": "PGI d5 (relative PGI release)", "setting": "[1]; [3]", "value": 0.09331, "unit": "%"},
      {"measurement": "PGI d12 (relative PGI release)", "setting": "[1]; [3]", "value": -19.2105, "unit": "%"},
      {"measurement": "Viability d12 (relative viability)", "setting": "[2]; [4]", "value": 90.9948, "unit": "%"}
    ]},
    {"smiles": "CC(C)Oc1ccc(-n2cnc3cc(/C=C\\c4ccc(C(C)(C)O)cc4)ccc32)cc1", "note": "[MMV1782350]", "values": [
      {"measurement": "PGI d5 (relative PGI release)", "setting": "[1]; [3]", "value": -0.1916, "unit": "%"},
      {"measurement": "PGI d12 (relative PGI release)", "setting": "[1]; [3]", "value": 0.3132, "unit": "%"},
      {"measurement": "Viability d12 (relative viability)", "setting": "[2]; [4]", "value": 72.1416, "unit": "%"}
    ]},
    {"smiles": "O=C(NCc1ccccc1Cl)c1cnc2ccccc2n1", "note": "[MMV1230557]", "values": [
      {"measurement": "PGI d5 (relative PGI release)", "setting": "[1]; [3]", "value": -1.462, "unit": "%"},
      {"measurement": "PGI d12 (relative PGI release)", "setting": "[1]; [3]", "value": -11.048, "unit": "%"},
      {"measurement": "Viability d12 (relative viability)", "setting": "[2]; [4]", "value": 58.5314, "unit": "%"}
    ]},
    {"smiles": "O=C(O)/C=C/C=C/c1cccc(Oc2cc(Cl)cc(Cl)c2)c1", "note": "[MMV1633963]", "values": [
      {"measurement": "PGI d5 (relative PGI release)", "setting": "[1]; [3]", "value": 0.04404, "unit": "%"},
      {"measurement": "PGI d12 (relative PGI release)", "setting": "[1]; [3]", "value": 0.4233, "unit": "%"},
      {"measurement": "Viability d12 (relative viability)", "setting": "[2]; [4]", "value": 136.634, "unit": "%"}
    ]},
    {"smiles": "O=C(Nc1[nH]c(=O)ncc1F)c1ccccc1", "note": "[MMV1782225]", "values": [
      {"measurement": "PGI d5 (relative PGI release)", "setting": "[1]; [3]", "value": -0.8152, "unit": "%"},
      {"measurement": "PGI d12 (relative PGI release)", "setting": "[1]; [3]", "value": -21.87, "unit": "%"},
      {"measurement": "Viability d12 (relative viability)", "setting": "[2]; [4]", "value": 224.691, "unit": "%"}
    ]},
    {"smiles": "CC(=O)N1CCN(c2ccc(OC[C@@H]3CO[C@@](Cn4ccnc4)(c4ccc(Cl)cc4Cl)O3)cc2)CC1", "note": "[MMV637533]", "values": [
      {"measurement": "PGI d5 (relative PGI release)", "setting": "[1]; [3]", "value": 1.26, "unit": "%"},
      {"measurement": "PGI d12 (relative PGI release)", "setting": "[1]; [3]", "value": -24.3929, "unit": "%"},
      {"measurement": "Viability d12 (relative viability)", "setting": "[2]; [4]", "value": 224.858, "unit": "%"}
    ]},
    {"smiles": "CN1CCN(Cc2ccc(-c3cnc4[nH]cc(-c5ccc6[nH]ccc6c5)c4c3)cc2)CC1", "note": "[MMV1580482]", "values": [
      {"measurement": "PGI d5 (relative PGI release)", "setting": "[1]; [3]", "value": 0.2177, "unit": "%"},
      {"measurement": "PGI d12 (relative PGI release)", "setting": "[1]; [3]", "value": 0.07079, "unit": "%"},
      {"measurement": "Viability d12 (relative viability)", "setting": "[2]; [4]", "value": 108.591, "unit": "%"}
    ]},
    {"smiles": "OC(Cn1cncn1)(Cn1cncn1)c1ccc(F)cc1F", "note": "[MMV002337]", "values": [
      {"measurement": "PGI d5 (relative PGI release)", "setting": "[1]; [3]", "value": -1.63, "unit": "%"},
      {"measurement": "PGI d12 (relative PGI release)", "setting": "[1]; [3]", "value": -24.335, "unit": "%"},
      {"measurement": "Viability d12 (relative viability)", "setting": "[2]; [4]", "value": 76.1493, "unit": "%"}
    ]}
  ]
}
